Where “and” joins values, the source holds several entries; their conditions need not be identical. Equal entries are not always repeated. Where two headings read alike, the source gives them in different places.
Columns and labels:
DENV3 THD3 = test: Plaque reduction assay, DENV3; assay type: cell-based, dengue virus serotype 3; conditions: read-out: PRNT50 DENV3
DENV2 sE2 [1] = biological target: T1, DENV2 sE2 (Dengue virus type 2, UniProt P14340); conditions: biolayer interferometry
DENV4 TVP360 = test: Plaque reduction assay, DENV4; assay type: cell-based, dengue virus serotype 4; conditions: read-out: PRNT50 DENV4
[2] = Microsome stability in vitro; assay type: in vitro ADME; conditions: mouse microsomes in vitro
[3] = biological target: T2, malate dehydrogenase (MDH) (Sus scrofa, UniProt P00346); test: Malate dehydrogenase; assay type: biochemical
T2 sequence (P00346 25-338): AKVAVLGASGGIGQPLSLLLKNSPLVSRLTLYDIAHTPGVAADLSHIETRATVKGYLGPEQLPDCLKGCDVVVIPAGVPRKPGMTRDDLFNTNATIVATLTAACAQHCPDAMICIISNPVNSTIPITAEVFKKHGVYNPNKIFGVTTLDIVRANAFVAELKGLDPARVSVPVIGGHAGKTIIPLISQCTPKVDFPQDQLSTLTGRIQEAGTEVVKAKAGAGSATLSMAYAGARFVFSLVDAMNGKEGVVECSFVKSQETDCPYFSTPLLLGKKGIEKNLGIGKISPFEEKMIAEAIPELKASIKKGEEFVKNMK

[4] = system: E-mediated fusion of DENV2 virions with liposomes; conditions: for Inhibition of E-mediated fusion: close to IC90
VSV-eGFP = assay type: cell-based, vesicular stomatitis virus
DENV2 NGC [5] = test: Plaque reduction assay, DENV2; assay type: cell-based, dengue virus serotype 2; conditions: read-out: PRNT50 DENV2
ZIKV PF-251013–18 = test: Plaque reduction assay, ZIKV; conditions: read-out: PRNT50 ZIKV
DENV1 WP74 = test: Plaque reduction assay, DENV1; assay type: cell-based, dengue virus serotype 1; conditions: read-out: PRNT50 DENV1
AmpC β-lactamase = AmpC β-lactamase (Escherichia coli, UniProt P00811)
BHK-21 cells = assay type: cell-based
[6] = Dynamic light scattering, particle size; assay type: physicochemical
DENV2 NGC [7] = test: Viral infectivity assay; assay type: cell-based, dengue virus serotype 2 New Guinea C; conditions: negative control compound
DENV2 sE2 [8] = biological target: T1, DENV2 sE2; conditions: assay optimisation, Figure S1
[9] = read-out: IC50 MDH no TritonX, no Triton X-100
[10] = read-out: IC50 MDH with TritonX, with 0.01% Triton X-100
[11] = read-out: IC50 AmpC no TritonX, no Triton X-100
[12] = read-out: IC50 AmpC with TritonX, with 0.01% Triton X-100

AmpC β-lactamase, sequence (P00811 20-377): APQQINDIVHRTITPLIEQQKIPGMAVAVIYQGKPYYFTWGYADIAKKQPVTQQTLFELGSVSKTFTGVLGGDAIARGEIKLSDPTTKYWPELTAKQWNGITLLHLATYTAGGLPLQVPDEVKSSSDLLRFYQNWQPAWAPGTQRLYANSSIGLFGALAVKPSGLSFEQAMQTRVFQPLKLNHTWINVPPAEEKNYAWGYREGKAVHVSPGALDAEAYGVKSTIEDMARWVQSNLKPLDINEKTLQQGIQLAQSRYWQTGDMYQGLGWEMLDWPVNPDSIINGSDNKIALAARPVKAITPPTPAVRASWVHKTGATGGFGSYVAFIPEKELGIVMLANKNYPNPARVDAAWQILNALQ

Q: What does the source list for `Cc1cc(C(C#N)c2ccc(Cl)cc2)c(Cl)cc1NC(=O)c1cc(I)cc(I)c1O` (stereo not drawn) [S4105]?
A: IC50 (DENV3 THD3; BHK-21 cells, scored): 1 to 10 µM; IC50 (DENV3 THD3; bound stated): ≤ 10 µM; Kd (DENV2 sE2 [1]): 0.9 ± 0.3 µM; IC50 (DENV4 TVP360; BHK-21 cells, scored): < 1 µM; IC50 (DENV4 TVP360; bound stated): ≤ 1 µM; T1/2 (Microsome stability) [2]: > 120 min; IC50 [3, 9]: 0.3 µM; IC50 [3, 10]: > 100 µM; Inhibition of viral fusion (protection of core from trypsin digestion) ([4]; at 5, 1, and 0.5 μM, Western blot): inhibit viral fusion in a concentration-dependent manner; Inhibition % vs. VSV-eGFP (VSV-eGFP): 64% and 60%; IC50 (DENV2 NGC [5]; BHK-21 cells, scored): < 1 µM; IC50 (DENV2 NGC [5]; bound stated): ≤ 1 µM; IC50 (ZIKV PF-251013–18; Vero cells, scored): < 1 µM; IC50 (ZIKV PF-251013–18; bound stated): ≤ 1 µM; IC50 (DENV1 WP74; BHK-21 cells, scored): < 1 µM; IC50 (DENV1 WP74; bound stated): ≤ 1 µM; IC50 (AmpC β-lactamase; [11]): 19.5 µM; IC50 (AmpC β-lactamase; [12]): > 100 µM; CC50 (BHK-21 cells): 50 ± 15 µM; Particle size at 40 μM with Tween20 [6]: 13.1 nm; Particle size at 40 μM without Tween20 [6]: 82 nm

Q: Which results are given for `CN(CC(=O)N(Cc1ccc(C2CCCCC2)cc1)c1ccc(C(=O)O)cc1)S(=O)(=O)c1c(F)c(F)c(F)c(F)c1F` [S7337]?
A: IC50 (DENV3 THD3; bound stated): ≤ 10 µM; Kd (DENV2 sE2 [1]): 1.3 ± 0.5 µM; IC50 (DENV4 TVP360; BHK-21 cells, scored): < 1 µM; IC50 (DENV4 TVP360; bound stated): ≤ 1 µM; T1/2 (Microsome stability) [2]: 3.2 min; IC50 [3, 9]: 86.4 µM; IC50 [3, 10]: > 100 µM; Inhibition of E-mediated fusion ([4]; 3 μM): inhibit E-mediated fusion; IC50 (DENV2 NGC [5]; BHK-21 cells, scored): < 1 µM; IC50 (DENV2 NGC [5]; bound stated): ≤ 1 µM; IC50 (ZIKV PF-251013–18; Vero cells, scored): 1 to 10 µM; IC50 (ZIKV PF-251013–18; bound stated): ≤ 10 µM; IC50 (DENV1 WP74; BHK-21 cells, scored): < 1 µM; IC50 (DENV1 WP74; bound stated): ≤ 1 µM; IC50 (AmpC β-lactamase; [11]): > 100 µM; IC50 (AmpC β-lactamase; [12]): > 100 µM; CC50 (BHK-21 cells): 13 ± 5 µM; Particle size at 40 μM with Tween20 [6]: 8.2 nm; Particle size at 40 μM without Tween20 [6]: 144 nm

Q: What does the source list for `COc1cc(C(=O)NS(=O)(=O)c2ccccc2C)ccc1Cc1cn(C)c2ccc(NC(=O)OC3CCCC3)cc12` [S1633]?
A: IC50 (DENV3 THD3; BHK-21 cells, scored): > 10 µM; Kd (DENV2 sE2 [1]): 5.2 ± 2.1 µM; IC50 (DENV4 TVP360; BHK-21 cells, scored): 1 to 10 µM; T1/2 (Microsome stability) [2]: 37.7 min; IC50 [3, 9]: 48.2 µM; IC50 [3, 10]: > 100 µM; Inhibition of E-mediated fusion ([4]; 10 μM): inhibit E-mediated fusion; IC50 (DENV2 NGC [5]; BHK-21 cells, scored): 1 to 10 µM; IC50 (ZIKV PF-251013–18; Vero cells, scored): > 10 µM; IC50 (DENV1 WP74; BHK-21 cells, scored): 1 to 10 µM; IC50 (AmpC β-lactamase; [11]): 36.6 µM; IC50 (AmpC β-lactamase; [12]): > 100 µM; CC50 (BHK-21 cells): 50 ± 3 µM; Particle size at 40 μM with Tween20 [6]: 9.2 nm; Particle size at 40 μM without Tween20 [6]: 823 nm

Q: With `CN1CCN(c2ccc(Nc3cc(Oc4ccccc4)ncn3)cc2)CC1` [JW-068, N−[4-(4-Methylpiperazin-1-yl)phenyl]-6-phenoxypyrimidin-4-amine] as the compound, how does the “Inhibition of DENV2 infection” value (DENV2 NGC [7]) read?
A: Its value is “does not inhibit DENV2 infection”.

Q: What about the “Competition with GNF2-biotin for binding to sE2” value (DENV2 sE2 [8]) of the same compound?
A: The value was “absence of competition”.
